Assay results as given in patent US3962282A, “Juvenile hormone mimics” (priority 1974, dated 1976).

How the values were obtained:
Type in all cases: in vivo
wax moth = assay: topical application to wax moth, fifth larval stage, maturation inhibition
Description: (§1) The compounds were applied in acetone solution at concentrations of 10 percent, 1 percent and 0.5 percent. One microliter of the acetone solution was applied to each test specimen. Ten test specimens were employed for each insect at each concentration and compared to ten acetone controls and ten zero controls. Approximately eight to ten days were required before results could be ascertained.
(§2) The insect species used in the test were Tenebrio molitor pupae; milkweed bug, fourth nymphal stage; wax moth, fifth larval stage; and Mexican bean beetle, fourth larval stage. At the completion of the test, each specimen was examined for the degree of juvenile and adult characteristics. The milkweed bug, wax moth, and Mexican bean beetle were assigned a numerical rating of 0 to 3 with 0 indicating no effect and 3 indicating the maximum effect or least adult development. Because of differences in morphology the Tenebrio rating scale was 0 to 4. In all cases a rating of 2 or higher means that the insect is incapable of reproduction. The number of specimens in each rating classification are given. In any test were the total of specimens reported is less than 10, those unreported died in some metamorphic stage. Such deaths indicate control, since the dead insects are not capable of reproducing.

milkweed bug = assay: topical application to milkweed bug, fourth nymphal stage, maturation inhibition; conditions: rating scale 0-3
Description: as §1, §2

Mexican bean beetle = assay: topical application to Mexican bean beetle, fourth larval stage, maturation inhibition
Description: as §1, §2

Tenebrio molitor pupae = assay: topical application to Tenebrio molitor pupae, maturation inhibition
Description: as §1, §2

[1] = 10% in acetone, 1 microliter topical, rating scale 0 (no effect) to 3 (maximum)
[2] = 10% in acetone, 1 microliter topical, rating scale 0 (no effect) to 4 (maximum)

SMILES	number of specimens in rating 0 (wax moth; 0.5%, rating scale 0-3) [specimens]	number of specimens in rating 0 (wax moth; 1%, rating scale 0-3) [specimens]	number of specimens in rating 0 (wax moth; [1]) [specimens]	number of specimens in rating 0 (milkweed bug; 0.5%) [specimens]	number of specimens in rating 0 (milkweed bug; 1%) [specimens]	number of specimens in rating 1 (milkweed bug; 1%) [specimens]	number of specimens in rating 0 (Mexican bean beetle; 0.5%, rating scale 0-3) [specimens]	number of specimens in rating 0 (Mexican bean beetle; 1%, rating scale 0-3) [specimens]	number of specimens in rating 0 (Mexican bean beetle; [1]) [specimens]	number of specimens in rating 0 (Tenebrio molitor pupae; 0.5%, rating scale 0-4) [specimens]	number of specimens in rating 3 (milkweed bug; 0.5%) [specimens]	number of specimens in rating 3 (milkweed bug; 1%) [specimens]	number of specimens in rating 3 (milkweed bug; 10%) [specimens]	number of specimens in rating 3 (Mexican bean beetle; 1%, rating scale 0-3) [specimens]	number of specimens in rating 3 (Mexican bean beetle; 10%, rating scale 0-3) [specimens]	number of specimens in rating 0 (Tenebrio molitor pupae; 1%, rating scale 0-4) [specimens]	number of specimens in rating 0 (Tenebrio molitor pupae; [2]) [specimens]	number of specimens in rating 2 (milkweed bug; 1%) [specimens]	number of specimens in rating 4 (Tenebrio molitor pupae; 10%, rating scale 0-4) [specimens]	number of specimens in rating 1 (milkweed bug; 0.5%) [specimens]	also measured
COc1ccc(CCC=C(C)CCC=C(C)C)cc1 [2,6-DIMETHYL-9-(4-METHOXYPHENYL)-2,6-NONADIENE]	10	9	10	10	5	5	10	10	6	1											number of specimens in rating 1 (Mexican bean beetle; 10%, rating scale 0-3): 1 specimens; number of specimens in rating 2 (Mexican bean beetle; 10%, rating scale 0-3): 3 specimens; number of specimens in rating 1 (Tenebrio molitor pupae; 0.5%, rating scale 0-4): 6 specimens; number of specimens in rating 2 (Tenebrio molitor pupae; 0.5%, rating scale 0-4): 3 specimens; number of specimens in rating 1 (Tenebrio molitor pupae; 1%, rating scale 0-4): 1 specimens; number of specimens in rating 2 (Tenebrio molitor pupae; 1%, rating scale 0-4): 2 specimens; number of specimens in rating 3 (Tenebrio molitor pupae; 1%, rating scale 0-4): 5 specimens; number of specimens in rating 4 (Tenebrio molitor pupae; 1%, rating scale 0-4): 2 specimens
CC(C)=CCC/C(C)=C/CCc1cccc(Cl)c1 [trans-2,6-dimethyl-9-(3-chlorophenyl)-2,6-nonadiene]	10	7	7				10	9		10	10	10	10	1	10	10	2				number of specimens in rating 1 (wax moth; 1%, rating scale 0-3): 1 specimens; number of specimens in rating 2 (wax moth; 1%, rating scale 0-3): 2 specimens; number of specimens in rating 1 (wax moth; 10%, rating scale 0-3): 3 specimens; number of specimens in rating 1 (Tenebrio molitor pupae; 10%, rating scale 0-4): 1 specimens; number of specimens in rating 2 (Tenebrio molitor pupae; 10%, rating scale 0-4): 1 specimens; number of specimens in rating 3 (Tenebrio molitor pupae; 10%, rating scale 0-4): 6 specimens
CC(C)=CCC/C(C)=C/CCc1ccc(F)cc1 [trans-9-(4-FLUOROPHENYL)-2,6-DIMETHYL-2,6-NONADIENE]	10	9	10							10	7	8	10	10	10	10		2	10		number of specimens in rating 2 (milkweed bug; 0.5%): 3 specimens; number of specimens in rating 3 (Mexican bean beetle; 0.5%, rating scale 0-3): 10 specimens
CCC(C)=CCCC(=CCCc1ccc2c(c1)OCO2)CC [3-METHYL-7-ETHYL-10-(3,4-METHYLENEDIOXYPHENYL)-3,7-DECADIENE]	9	10	10	9	7							1	10	10	10			2	10	1	number of specimens in rating 2 (Mexican bean beetle; 0.5%, rating scale 0-3): 1 specimens; number of specimens in rating 3 (Mexican bean beetle; 0.5%, rating scale 0-3): 9 specimens; number of specimens in rating 3 (Tenebrio molitor pupae; 0.5%, rating scale 0-4): 2 specimens; number of specimens in rating 4 (Tenebrio molitor pupae; 0.5%, rating scale 0-4): 8 specimens; number of specimens in rating 3 (Tenebrio molitor pupae; 1%, rating scale 0-4): 1 specimens; number of specimens in rating 4 (Tenebrio molitor pupae; 1%, rating scale 0-4): 9 specimens
CC(C)=CCCC(C)=CCCc1cc2c(cc1Cl)OCO2 [9-(2-CHLORO-4,5-METHYLENEDIOXYPHENYL)-2,6-DIMETHYL-2,6-NONADIENE]	10	10	8	9	3	1	10	9	7	10		6	10	10	10	10	10			1	number of specimens in rating 2 (wax moth; 10%, rating scale 0-3): 1 specimens; number of specimens in rating 2 (Mexican bean beetle; 1%, rating scale 0-3): 1 specimens; number of specimens in rating 1 (Mexican bean beetle; 10%, rating scale 0-3): 3 specimens
CC(=CCCc1ccc2c(c1)OCO2)CCCC(C)C [2,6-DIMETHYL-9-(3,4-METHYLENEDIOXYPHENYL)-6-NONENE]	9	9	10	5	1					3	3	8	7	10	10		1		9	1	number of specimens in rating 1 (wax moth; 0.5%, rating scale 0-3): 1 specimens; number of specimens in rating 1 (wax moth; 1%, rating scale 0-3): 1 specimens; number of specimens in rating 1 (Mexican bean beetle; 0.5%, rating scale 0-3): 1 specimens; number of specimens in rating 2 (Mexican bean beetle; 0.5%, rating scale 0-3): 7 specimens; number of specimens in rating 3 (Mexican bean beetle; 0.5%, rating scale 0-3): 2 specimens; number of specimens in rating 1 (Tenebrio molitor pupae; 0.5%, rating scale 0-4): 1 specimens; number of specimens in rating 2 (Tenebrio molitor pupae; 0.5%, rating scale 0-4): 2 specimens; number of specimens in rating 3 (Tenebrio molitor pupae; 0.5%, rating scale 0-4): 2 specimens; number of specimens in rating 4 (Tenebrio molitor pupae; 0.5%, rating scale 0-4): 2 specimens; number of specimens in rating 2 (Tenebrio molitor pupae; 1%, rating scale 0-4): 4 specimens; number of specimens in rating 4 (Tenebrio molitor pupae; 1%, rating scale 0-4): 6 specimens
CC(C)=CCC/C(C)=C/CCc1ccc(C#N)cc1 [trans-4-(4,8-DIMETHYL-3,7-NONADIENYL)BENZONITRILE]	10	10	10	3			10	10	10	10	1	7	10			10	9	3	1	5	number of specimens in rating 2 (milkweed bug; 0.5%): 1 specimens
CC(C)=CCC/C(C)=C/CCc1ccc(N(C)C)cc1 [trans-4-(4,8-DIMETHYL-3,7-NONADIENYL)-N,N-DIMETYLANILINE]	10	10	10	10	5	1	10	9		10		2	10	1	10	2		1	10		number of specimens in rating 1 (Tenebrio molitor pupae; 1%, rating scale 0-4): 2 specimens; number of specimens in rating 2 (Tenebrio molitor pupae; 1%, rating scale 0-4): 1 specimens; number of specimens in rating 3 (Tenebrio molitor pupae; 1%, rating scale 0-4): 4 specimens
CCOc1cccc(CCC=C(C)CCC=C(C)C)c1 [9-(3-ethoxyphenyl)-2,6-dimethyl-2,6nonadiene]	10	10	10	3			10	8	1	10		2	7		7	8		7	4	1	number of specimens in rating 2 (milkweed bug; 0.5%): 2 specimens; number of specimens in rating 1 (Mexican bean beetle; 1%, rating scale 0-3): 2 specimens; number of specimens in rating 2 (Mexican bean beetle; 10%, rating scale 0-3): 2 specimens; number of specimens in rating 1 (Tenebrio molitor pupae; 1%, rating scale 0-4): 2 specimens; number of specimens in rating 1 (Tenebrio molitor pupae; 10%, rating scale 0-4): 1 specimens; number of specimens in rating 3 (Tenebrio molitor pupae; 10%, rating scale 0-4): 5 specimens
